In the test the target is T1, human mAChR M4 (Homo sapiens, UniProt P08173).
T1 construct: expressed in transfected cells; host or cells: CHO-K1 (ATCC), stably co-expressing chimeric G protein Gqi5
T1 sequence (P08173 1-479): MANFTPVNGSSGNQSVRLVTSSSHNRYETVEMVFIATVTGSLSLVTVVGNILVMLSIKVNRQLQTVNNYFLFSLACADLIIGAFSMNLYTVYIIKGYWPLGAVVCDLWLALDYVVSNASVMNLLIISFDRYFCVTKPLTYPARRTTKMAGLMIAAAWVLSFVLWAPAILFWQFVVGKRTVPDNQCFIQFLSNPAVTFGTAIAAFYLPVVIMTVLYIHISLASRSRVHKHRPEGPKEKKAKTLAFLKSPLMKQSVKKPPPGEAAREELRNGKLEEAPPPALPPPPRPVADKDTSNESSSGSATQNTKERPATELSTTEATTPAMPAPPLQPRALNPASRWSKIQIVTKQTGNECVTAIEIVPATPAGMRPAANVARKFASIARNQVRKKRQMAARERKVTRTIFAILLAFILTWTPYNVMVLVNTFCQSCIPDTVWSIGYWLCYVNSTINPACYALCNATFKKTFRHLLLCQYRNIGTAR
The experiment in a line: mAChR M4 cell-based functional assay (calcium mobilization, EC80 acetylcholine), human M4. The following applies: for IC50: M4/Gqi5/CHO-K1 cells, decrease of EC80 acetylcholine response; for Emin: human M4, % ACh maximum at 30 μM. The gist of the method:
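CHO-K1 cells stably expressing human M4 with chimeric Gqi5; intracellular calcium rise read on FDSS as fluorescence static ratio at 1 Hz. Compounds in 10-point 1:3 dilution series; IC50 taken as concentration-dependent decrease of the EC80 acetylcholine response, four-parameter logistic fit.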
In general terms: Calcium assays in cells follow changes in intracellular calcium, usually with a dye or a luminescent sensor.

Experimental findings from patent US12577234B2, “Antagonists of the muscarinic acetylcholine receptor M4” (Vanderbilt University, priority 2017, dated 2026) are described below.

On to `c1cc(N2CCOCC2)nnc1N[C@H]1C[C@@H]2CN(CC3CCOCC3)C[C@@H]2C1` [Compound 191, (3aR,5s,6aS)-N-(6-morpholinopyridazin-3-yl)-2-(tetrahydropyran-4-ylmethyl)-3,3a,4,5,6,6a-hexahydro-1H-cyclopenta[c]pyrrol-5-amine], for which, for the setting “Table 10”, the “Human M4 Emin” value is 5% and the IC50 turned out to be 13.4 nM.
`Cc1cnn(C)c1-c1ccc(OCC2C[C@@H]3CN(CC45CC6CC(CC(C6)C4)C5)C[C@@H]3C2)nn1` (stereo partly drawn) [Compound 79, (3sR,6aS)-2-(1-adamantylmethyl)-5-[[6-(2,4-dimethylpyrazol-3-yl)pyridazin-3-yl]oxymethyl]-3,3a,4,5,6,6a-hexahydro-1H-cyclopenta[c]pyrrole]: under “Table 9”, the half-maximal inhibitory concentration (IC50) was 119 nM and the Emin is 3.76%.
For the molecule `Fc1ccc(CN2C[C@H]3C[C@H](Nc4ccc(-c5cc(F)ccc5Cl)nn4)C[C@H]3C2)cc1` [Compound 163, (3aR,5s,6aS)-N-[6-(2-chloro-5-fluoro-phenyl)pyridazin-3-yl]-2-[(4-fluorophenyl)methyl]-3,3a,4,5,6,6a-hexahydro-1H-cyclopenta[c]pyrrol-5-amine], under “Table 10”, the “Human M4 Emin” value amounted to 3% and the 50% inhibitory concentration (IC50) was 19.7 nM.
As to `Cc1cccnc1CN1C[C@H]2C[C@H](CNc3ccc(-c4cn(C)nc4C)nn3)C[C@H]2C1` [Compound 73, N-[[(3aR,5s,6aS)-2-[(3-methyl-2-pyridyl)methyl]-3,3a,4,5,6,6a-hexahydro-1H-cyclopenta[c]pyrrol-5-yl]methyl]-6-(1,3-dimethylpyrazol-4-yl)pyridazin-3-amine], for the setting “Table 9”, the IC50 was 2010 nM and the Emin worked out at 9.23%.
Turning to `c1cn2cc(-c3ccc(N[C@H]4C[C@@H]5CN(CC6CCOCC6)C[C@@H]5C4)nn3)ccc2n1` [Compound 183, (3aR,5s,6aS)-N-(6-imidazo[1,2-a]pyridin-6-ylpyridazin-3-yl)-2-(tetrahydropyran-4-ylmethyl)-3,3a,4,5,6,6a-hexahydro-1H-cyclopenta[c]pyrrol-5-amine], for the setting “Table 10”, the “Human M4 Emin” value is reported as 7% and the IC50 worked out at 1.07 nM.
Turning to `Fc1ccc(Cl)c(-c2ccc(OCC3C[C@@H]4CN(CC5CCCOC5)C[C@@H]4C3)nn2)c1` (stereo partly drawn) [Compound 113, (3aR,6aS)-5-[[6-(2-chloro-5-fluoro-phenyl)pyridazin-3-yl]oxymethyl]-2-(tetrahydropyran-3-ylmethyl)-3,3a,4,5,6,6a-hexahydro-1H-cyclopenta[c]pyrrole], where the note is “Table 9”, the IC50 was determined as 860 nM and the Emin is 4.76%.
`c1cc(-c2ccc(N[C@H]3C[C@@H]4CN(CC5CCOCC5)C[C@@H]4C3)nn2)ccn1` [Compound 219, (3aR,5s,6aS)-N-[6-(4-pyridyl)pyridazin-3-yl]-2-(tetrahydropyran-4-ylmethyl)-3,3a,4,5,6,6a-hexahydro-1H-cyclopenta[c]pyrrol-5-amine]: for the setting “Table 10”, the “Human M4 Emin” value worked out at 9% and the IC50 is 1.83 nM.
The like results for `CC(=O)Nc1ccc(-c2ccc(N[C@H]3C[C@@H]4CN(CC5CCOCC5)C[C@@H]4C3)nn2)cc1` [Compound 180, N-[4-[6-[[(3aR,5s,6aS)-2-(tetrahydropyran-4-ylmethyl)-3,3a,4,5,6,6a-hexahydro-1H-cyclopenta[c]pyrrol-5-yl]amino]pyridazin-3-yl]phenyl]acetamide] were, in that order, 8% and 1.17 nM.
`CCC(C)CN1C[C@H]2CC(COc3ccc(-c4c(C)cnn4C)nn3)C[C@H]2C1` (stereo partly drawn) [Compound 81, (3aR,6aS)-5-[[6-(2,4-dimethylpyrazol-3-yl)pyridazin-3-yl]oxymethyl]-2-(2-methylbutyl)-3,3a,4,5,6,6a-hexahydro-1H-cyclopenta[c]pyrrole]: for the setting “Table 9”, the half-maximal inhibitory concentration (IC50) was 904 nM and the Emin came to 4.54%.
The like results for `Cc1cnn(C)c1-c1ccc(N[C@H]2C[C@@H]3CN(CC4CCOCC4)C[C@@H]3C2)nn1` [Compound 21, (3aR,5s,6aS)-N-[6-(2,4-dimethylpyrazol-3-yl)pyridazin-3-yl]-2-(tetrahydropyran-4-ylmethyl)-3,3a,4,5,6,6a-hexahydro-1H-cyclopenta[c]pyrrol-5-amine] were, in that order, 10 nM and 4.32%.
The like results for `Cc1cccnc1CN1C[C@H]2C[C@H](Nc3ccc(-c4cc(F)ccc4Cl)nn3)C[C@H]2C1` [Compound 35, (3aR,5s,6aS)-N-[6-(2-chloro-5-fluoro-phenyl)pyridazin-3-yl]-2-[(3-methyl-2-pyridyl)methyl]-3,3a,4,5,6,6a-hexahydro-1H-cyclopenta[c]pyrrol-5-amine] were, in that order, 3.4 nM and 6.1%.
Turning to `Fc1ccc(Cl)c(-c2ccc(N[C@H]3C[C@@H]4CN(CC5CC5)C[C@@H]4C3)nn2)c1` [Compound 169, (3aR,5s,6aS)-N-[6-(2-chloro-5-fluoro-phenyl)pyridazin-3-yl]-2-(cyclopropylmethyl)-3,3a,4,5,6,6a-hexahydro-1H-cyclopenta[c]pyrrol-5-amine], where the note is “Table 10”, the “Human M4 Emin” value was 3% and the IC50 came out at 18.8 nM.
For `Cc1cnn(C)c1-c1ccc(OCC2C[C@@H]3CN(Cc4ccccc4)C[C@@H]3C2)nn1` (stereo partly drawn) [Compound 86, (3aR,6aS)-2-benzyl-5-[[6-(2,4-dimethylpyrazol-3-yl)pyridazin-3-yl]oxymethyl]-3,3a,4,5,6,6a-hexahydro-1H-cyclopenta[c]pyrrole], where the note is “Table 9”, the IC50 came out at 2860 nM and the Emin is recorded as 9.09%.
The like results for `Cc1nn(C)cc1-c1ccc(N[C@H]2C[C@@H]3CN(CC4CCCCC4)C[C@@H]3C2)nn1` [Compound 7, (3aR,5s,6aS)-2-(cyclohexylmethyl)-N-[6-(1,3-dimethylpyrazol-4-yl)pyridazin-3-yl]-3,3a,4,5,6,6a-hexahydro-1H-cyclopenta[c]pyrrol-5-amine] were, in that order, 10 nM and 2.72%.
In the case of `Cn1cc(-c2ccc(N[C@H]3C[C@@H]4CN(CC5CCOCC5)C[C@@H]4C3)nn2)cn1` [Compound 208, (3aR,5s,6aS)-N-[6-(1-methylpyrazol-4-yl)pyridazin-3-yl]-2-(tetrahydropyran-4-ylmethyl)-3,3a,4,5,6,6a-hexahydro-1H-cyclopenta[c]pyrrol-5-amine], under “Table 10”, the “Human M4 Emin” value was 25% and the IC50 was determined as 4.14 nM.
For `F[C@H]1CCN(c2ccc(N[C@H]3C[C@@H]4CN(CC5CCOCC5)C[C@@H]4C3)nn2)C1` [Compound 195, (3aR,5s,6aS)-N-[6-[(3R)-3-fluoropyrrolidin-1-yl]pyridazin-3-yl]-2-(tetrahydropyran-4-ylmethyl)-3,3a,4,5,6,6a-hexahydro-1H-cyclopenta[c]pyrrol-5-amine] the same measures were 4% and 9.11 nM.
Consider `Fc1ccc(Cl)c(-c2ccc(OCC3C[C@@H]4CN(Cc5ccccc5F)C[C@@H]4C3)nn2)c1` (stereo partly drawn) [Compound 115, (3aR,6aS)-5-[[6-(2-chloro-5-fluoro-phenyl)pyridazin-3-yl]oxymethyl]-2-[(2-fluorophenyl)methyl]-3,3a,4,5,6,6a-hexahydro-1H-cyclopenta[c]pyrrole], for which, where the note is “Table 9”, the IC50 is 5660 nM and the Emin is 9.93%.
For `CS(=O)(=O)Nc1ccc(CN2C[C@H]3C[C@H](Nc4ccc(-c5cc(F)ccc5Cl)nn4)C[C@H]3C2)cc1` [Compound 172, N-[4-[[(3aR,5s,6aS)-5-[[6-(2-chloro-5-fluoro-phenyl)pyridazin-3-yl]amino]-3,3a,4,5,6,6a-hexahydro-1H-cyclopenta[c]pyrrol-2-yl]methyl]phenyl]methanesulfonamide], under “Table 10”, the “Human M4 Emin” value worked out at 3% and the IC50 was 42.7 nM.
For `Fc1ccc(Cl)c(-c2ccc(OCC3C[C@@H]4CN(Cc5ccccn5)C[C@@H]4C3)nn2)c1` (stereo partly drawn) [Compound 117, (3aR,6aS)-5-[[6-(2-chloro-5-fluoro-phenyl)pyridazin-3-yl]oxymethyl]-2-(2-pyridylmethyl)-3,3a,4,5,6,6a-hexahydro-1H-cyclopenta[c]pyrrole], for the setting “Table 9”, the IC50 amounted to 1460 nM and the Emin is given as 4.82%.
Take `c1ccc(-c2ccc(N[C@H]3C[C@@H]4CN(CC5CCOCC5)C[C@@H]4C3)nn2)cc1` [Compound 197, (3aR,5s,6aS)-N-(6-phenylpyridazin-3-yl)-2-(tetrahydropyran-4-ylmethyl)-3,3a,4,5,6,6a-hexahydro-1H-cyclopenta[c]pyrrol-5-amine]: where the note is “Table 10”, the “Human M4 Emin” value is given as 9% and the IC50 was 1.25 nM.
As for `Fc1ccc(Cl)c(-c2ccc(N[C@H]3C[C@@H]4CN(Cc5ccccc5F)C[C@@H]4C3)nn2)c1` [Compound 36, (3aR,5s,6aS)-N-[6-(2-chloro-5-fluoro-phenyl)pyridazin-3-yl]-2-[(2-fluorophenyl)methyl]-3,3a,4,5,6,6a-hexahydro-1H-cyclopenta[c]pyrrol-5-amine], under “Table 9”, the IC50 was found to be 14.6 nM and the Emin was found to be 6.22%.

In general, IC50 refers to the concentration that inhibits the measured activity by half.
